Structures can show the parent of a compound that is named as a salt.
How the values were obtained:
[1] = tested on: laminitis in horses; test: Oral domperidone treatment of laminitic horses (case examples 1-6)
[2] = α-adrenergic antagonists examined for laminitis; background statement; cited from earlier work

SMILES	side effects during treatment ([1]; Example 1: 1.1 mg/kg orally twice a day)	time the mare remained sound ([1]; Example 1: 1.1 mg/kg orally twice a day for 15 days)	laminitic symptoms ([1]; Example 1: 15 year old Arabian mare, chronic founder, 1.1 mg/kg orally twice a day, after three days of treatment)	return of laminitic symptoms ([1]; Example 1: after the resumed treatment)	soundness after resumed treatment ([1]; Example 1: treatment resumed a few weeks later after return of symptoms, after four days of treatment)	walking / stiffness ([1]; Example 2: pony of approx. 400 pounds, laminitic founder due to grain overload, 1.1 mg/kg orally twice per day, second day of treatment)	recovery ([1]; Example 2: pony, treatment continued for an additional two days)	return of symptoms ([1]; Example 3: total treatment 5 days)	symptoms ([1]; Example 3: two horses with early signs of laminitis, 1.1 mg/kg orally twice per day, after two days of treatment)	signs of laminitis ([1]; Example 4: mare laminitic for several weeks, 1.1 mg/kg orally SID for 5 days, after three days of treatment)	recovery ([1]; Example 4: mare, 1.1 mg/kg orally SID for 5 days)	return of laminitic symptoms ([1]; Example 5: 1.1 mg/kg orally SID for 5 days)	laminitic symptoms ([1]; Example 5: horse with lameness of unknown etiology, 1.1 mg/kg orally SID for 5 days)	improvement ([1]; Example 6: 1.1 mg/kg domperidone orally twice a day plus banamine plus acepromazine, after ten days of treatment)	walking ([1]; Example 6: Paso Fino mare, 1.1 mg/kg domperidone orally twice a day plus banamine plus acepromazine, afternoon of the second day of treatment)	effectiveness against laminitic symptoms ([1]; horses, recommended concentrations, administered at least once per day)	benefit at higher oral concentrations ([1]; oral, concentrations greater than 3.3 mg/kg)	oral concentration giving the best results ([1]; taken orally)	side effects [2]
O=c1[nH]c2ccccc2n1CCCN1CCC(n2c(=O)[nH]c3cc(Cl)ccc32)CC1 [domperidone, 5-Chloro-1-[1-[3-(2,3-dihydro-2-oxo-1H-benzimidazol-1-yl)propyl]-4-piperidinyl]-1,3-dihydro-2H-benzimidazol-2-one]	no side effects noted	at least 15 days	laminitic symptoms had disappeared	Laminitic symptoms did not return	the mare was sound again	walking the second day of treatment with no apparent stiffness	Complete recovery was apparent	No return of symptoms was noted	Symptoms were gone in both animals	showing no signs of laminitis	fully recovered	did not return	disappeared after the second day of treatment	about 75%	had improved and was walking some on her own, without prodding	found to be effective	no further benefits have been observed	about 1.1 mg/kg	
CC(COc1ccccc1)N(CCCl)Cc1ccccc1 (centres unmarked) [phenoxybenzamine]																			hypotension, recumbency, and a prolonged duration of action
CC(=O)c1ccc2c(c1)N(CCCN(C)C)c1ccccc1S2 [acepromazine maleate]																			sedation and cholinesterase inhibition
